Patent publication US20260285801A1, “LIPID NANOPARTICLE FOR TARGETED DELIVERY OF THERAPEUTIC PAYLOADS” (Trustees of Tufts College, priority 2023, published 2026)

Key:
[1] = LNP size and polydispersity index by dynamic light scattering (Zetasizer Nano ZS); type: physicochemical; conditions: LNP with mRNA payload formulated with the lipid; active lipid/Cholesterol/DOPC/DMG-PEG 16.8/4.0/2.0/1.0; Lipids:mRNA 25:1; PBS pH 7.4, 25° C.
Protocol: (§1) RNA working solutions (0.134 mg/ml) were prepared in 25 mM sodium acetate buffer using DNase/RNase-free distilled water. Lipid stock solutions (10 mg/mL) were freshly prepared with active lipids or helper lipids (e.g., cholesterol, DOPC or DSPC, or ALC-0159) in ethanol. Reagents were mixed by vortexing and sonicating until the lipids were completely dissolved. A lipid mixture was first prepared by combining the active lipids (e.g., ionizable lipids of the present disclosure) and helper lipids into one vial and mixing thoroughly. Lipid nanoparticles were then formed by mixing the RNA working solution (0.134 mg/ml) and the lipid mixture at 3:1 volume ratio, either manually (for smaller scale) or by Precision Igniter microfluidic device. The formulation solution was transferred into a 300 kDa MWCO Float-A-Lyzer G2 Dialysis Device and dialyzed against at least 1000-folds volume of 50 mM Tris buffer overnight at 4° C. The LNP solution was sterilized with a 0.22 μm filter.
(§2) For LNP characterization, size and polydispersity index (PDI) were determined by dynamic light scattering using a Zetasizer Nano ZS. 10 μL of LNP suspension was transferred to a low-volume cuvette containing 900 μL of Ca^2+ and Mg^2+ free PBS at pH 7.4. Refractive index was set to […] and temperature was set to 25° C. Encapsulation efficiency (EE %) was measured using a fluorescence plate-based assay employing the Ribogreen reagent (Invitrogen) as per PNI Ribogreen assay protocol 16. This assay measures the quantity of mRNA in samples with intact LNPs to determine the quantity of unencapsulated RNA as well as in LNP samples disrupted by triton X-100 to measure the total RNA. EE % is calculated as the difference between the total RNA and the unencapsulated RNA divided by the total RNA.

[2] = Encapsulation efficiency and mRNA quantity by Ribogreen fluorescence plate assay; type: physicochemical; conditions: LNP with mRNA payload formulated with the lipid, 16.8/4.0/2.0/1.0, Lipids:mRNA 25:1; for EE %: (total RNA - unencapsulated RNA)/total RNA
Protocol: as §1, §2

Row | SMILES | PDI [1] | Size (nm) [1] [nm] | [mRNA] Ug/ml [2] [Ug/ml] | EE % [2] [%]
1 | CCCCCCC(CCCC)COC(=O)OCCOC(=O)CCN(CCCN(C)CCCN(CCC(=O)OCCOC(=O)OCC(CCCC)CCCCCC)CCC(=O)OCCOC(=O)OCC(CCCC)CCCCCC)CCC(=O)OCCOC(=O)OCC(CCCC)CCCCCC (stereo not drawn) [Lipid L0088] | 0.087 | 153.9 | 69.7 | 85.2
2 | CCCCCCC(CCCC)CNC(=O)SCCOC(=O)CCN(CCCN(C)CCCN(CCC(=O)OCCSC(=O)NCC(CCCC)CCCCCC)CCC(=O)OCCSC(=O)NCC(CCCC)CCCCCC)CCC(=O)OCCSC(=O)NCC(CCCC)CCCCCC (stereo not drawn) [Lipid L0550] | 0.14 | 121 | 61.1 | 84.3
3 | CCC1CC1CCCCSSCCOC(=O)CCN(CCCN(C)CCCN(CCC(=O)OCCSSCCCCC1CC1CC)CCC(=O)OCCSSCCCCC1CC1CC)CCC(=O)OCCSSCCCCC1CC1CC (stereo not drawn) [Lipid L0586] | 0.079 | 151.8 | 78 | 21.2
4 | CCC(C)CCCCCOC(=O)CCN(CCCN(C)CCCN(CCC(=O)OCCCCCC(C)CC)CCC(=O)OCCCCCC(C)CC)CCC(=O)OCCCCCC(C)CC (stereo not drawn) [Lipid L0630] | 0.102 | 121.9 | 74.99 | 60.74
5 | CCC(C)CCCCCOC(=O)CCN(CCC(=O)OCCCCCC(C)CC)CCN(C)CCN(CCC(=O)OCCCCCC(C)CC)CCC(=O)OCCCCCC(C)CC (stereo not drawn) [Lipid L0631] | 0.105 | 122.2 | 88.88 | 45.59
6 | CCCCCCCCC(CCC)OC(=O)OCCOC(=O)CCN(CCCN(C)CCCN(CCC(=O)OCCOC(=O)OC(CCC)CCCCCCCC)CCC(=O)OCCOC(=O)OC(CCC)CCCCCCCC)CCC(=O)OCCOC(=O)OC(CCC)CCCCCCCC (stereo not drawn) [Lipid L0637] | 0.34 | 186.1 | 66.8 | 94
7 | CCCCCCCCC(CCC)OC(=O)OCCOC(=O)CCN(CCC(=O)OCCOC(=O)OC(CCC)CCCCCCCC)CCN(C)CCN(CCC(=O)OCCOC(=O)OC(CCC)CCCCCCCC)CCC(=O)OCCOC(=O)OC(CCC)CCCCCCCC (stereo not drawn) [Lipid L0638] | 0.22 | 121.5 | 65.1 | 95.7
8 | CC(C)CCCCCCSSCCOC(=O)CCN(CCCN(C)CCCN(CCC(=O)OCCSSCCCCCCC(C)C)CCC(=O)OCCSSCCCCCCC(C)C)CCC(=O)OCCSSCCCCCCC(C)C [Lipid L0642] | 0.124 | 186.4 | 99.9 | 84.5
9 | CC(C)CCCCCCSSCCOC(=O)CCN(CCCn1ccnc1)CCC(=O)OCCSSCCCCCCC(C)C [Lipid L0645] | 0.106 | 161 | 90 | 74.2
10 | CCCCCCCC(CCCCCC)OC(=O)OCCOC(=O)CCN(CCCN(C)CCCN(CCC(=O)OCCOC(=O)OC(CCCCCC)CCCCCCC)CCC(=O)OCCOC(=O)OC(CCCCCC)CCCCCCC)CCC(=O)OCCOC(=O)OC(CCCCCC)CCCCCCC (stereo not drawn) [Lipid L0654] | 0.1 | 119.4 | 65.6 | 90.6
11 | CCCCCCCCCC(CC)OC(=O)OCCOC(=O)CCN(CCCN(C)CCCN(CCC(=O)OCCOC(=O)OC(CC)CCCCCCCCC)CCC(=O)OCCOC(=O)OC(CC)CCCCCCCCC)CCC(=O)OCCOC(=O)OC(CC)CCCCCCCCC (stereo not drawn) [Lipid L0659] | 0.1 | 104.3 | 69.6 | 96.2
12 | CCCCCCCCCC(CC)OC(=O)OCCOC(=O)CCN(CCCN(C)CCCN(CCC(=O)OCCOC(=O)OC(CC)CCCCCCCCC)CCC(=O)OCCOC(=O)OC(CC)CCCCCCCCC)CCC(=O)OCCOC(=O)OC(CC)CCCCCCCCC (stereo not drawn) [Lipid L0660] | 0.11 | 122.2 | 71 | 97
13 | CCCCCCC(CCCC)COC(=O)OCCOC(=O)CCN(CCCN(CCO)CCCN(CCC(=O)OCCOC(=O)OCC(CCCC)CCCCCC)CCC(=O)OCCOC(=O)OCC(CCCC)CCCCCC)CCC(=O)OCCOC(=O)OCC(CCCC)CCCCCC (stereo not drawn) [Lipid L0665] | 0.16 | 107.6 | 65.8 | 97.2
14 | CCCCCCC(CCCC)COC(=O)OCCOC(=O)CCN(CCCN(CCCO)CCCN(CCC(=O)OCCOC(=O)OCC(CCCC)CCCCCC)CCC(=O)OCCOC(=O)OCC(CCCC)CCCCCC)CCC(=O)OCCOC(=O)OCC(CCCC)CCCCCC (stereo not drawn) [Lipid L0666] | 0.26 | 246.5 | 71.9 | 96.1
15 | CCCCCCC(CCCC)COC(=O)OCCOC(=O)CCN(CCCN(CCCCO)CCCN(CCC(=O)OCCOC(=O)OCC(CCCC)CCCCCC)CCC(=O)OCCOC(=O)OCC(CCCC)CCCCCC)CCC(=O)OCCOC(=O)OCC(CCCC)CCCCCC (stereo not drawn) [Lipid L0667] | 0.19 | 101.7 | 77.3 | 97
16 | CCCCCCC(CCCC)COC(=O)OCCOC(=O)CCN(CCCN(CCCNC(=O)OC(C)(C)C)CCCN(CCC(=O)OCCOC(=O)OCC(CCCC)CCCCCC)CCC(=O)OCCOC(=O)OCC(CCCC)CCCCCC)CCC(=O)OCCOC(=O)OCC(CCCC)CCCCCC (stereo not drawn) [Lipid L0668] | 0.11 | 134.7 | 67.1 | 97
17 | CCCCCCC(CCCC)COC(=O)OCCOC(=O)CCN(CCCN(CCCN(CCC(=O)OCCOC(=O)OCC(CCCC)CCCCCC)CCC(=O)OCCOC(=O)OCC(CCCC)CCCCCC)CCCN1CCN(C)CC1)CCC(=O)OCCOC(=O)OCC(CCCC)CCCCCC (stereo not drawn) [Lipid L0674] | 0.22 | 124.4 | 71.22 | 98.92
18 | CCCCCCC(CCCC)COC(=O)NCCNC(=O)CCN(CCCN(C)CCCN(CCC(=O)OCCNC(=O)OCC(CCCC)CCCCCC)CCC(=O)OCCNC(=O)OCC(CCCC)CCCCCC)CCC(=O)NCCNC(=O)OCC(CCCC)CCCCCC (stereo not drawn) [Lipid L0744] | 0.118 | 97 | 74 | 95.5
19 | CCCCCCC(CCCC)COC(=O)OCCOC(=O)CCN(CCCN(CCCNC(=S)NC)CCCN(CCC(=O)OCCOC(=O)OCC(CCCC)CCCCCC)CCC(=O)OCCOC(=O)OCC(CCCC)CCCCCC)CCC(=O)OCCOC(=O)OCC(CCCC)CCCCCC (stereo not drawn) [Lipid L0773] | 0.089 | 135.3 | 95.3 | 98.7
20 | CCCCCCC(CCCC)CNC(=O)NCCNC(=O)CCN(CCCN(C)CCCN(CCC(=O)NCCNC(=O)NCC(CCCC)CCCCCC)CCC(=O)NCCNC(=O)NCC(CCCC)CCCCCC)CCC(=O)NCCNC(=O)NCC(CCCC)CCCCCC (stereo not drawn) [Lipid L0775] | 0.863 | 5911 |  | 
21 | CC(C)CCCCCCCCSSCCOC(=O)CCN(CCCN(C)CCCN(CCC(=O)OCCSSCCCCCCCCC(C)C)CCC(=O)OCCSSCCCCCCCCC(C)C)CCC(=O)OCCSSCCCCCCCCC(C)C [Lipid L0813] | 0.107 | 183 | 96.7 | 84
22 | CC(C)CCCCCCCCSSCCOC(=O)CCN(CCCN(C)CCCN(CCC(=O)OCCSSCCCCCCCCC(C)C)CCC(=O)OCCSSCCCCCCCCC(C)C)CCC(=O)OCCSSCCCCCCCCC(C)C [Lipid L0814] | 0.093 | 178.8 | 90.2 | 70
23 | CCCCC/C=C\CCCOC(=O)CCN(CCCN(C)CCCN(CCC(=O)OCCC/C=C\CCCCC)CCC(=O)OCCC/C=C\CCCCC)CCC(=O)OCCC/C=C\CCCCC [Lipid L0824] | 0.12 | 95.98 | 93.4 | 68
24 | CC/C=C\CCCC[Se]CCOC(=O)CCN(CCCN(C)CCCN(CCC(=O)OCC[Se]CCCC/C=C\CC)CCC(=O)OCC[Se]CCCC/C=C\CC)CCC(=O)OCC[Se]CCCC/C=C\CC [Lipid L0825] | 0.099 | 118.7 | 91.2 | 62
25 | CCCC/C=C\CCOC(=O)CCN(CCCN(C)CCCN(CCC(=O)OCC/C=C\CCCC)CCC(=O)OCC/C=C\CCCC)CCC(=O)OCC/C=C\CCCC [Lipid L0826] | 0.082 | 141 | 95.2 | 39
26 | CC/C=C\CCCCOC(=O)CCN(CCCN(C)CCCN(CCC(=O)OCCCC/C=C\CC)CCC(=O)OCCOC(=O)OCC(CCCC)CCCCCC)CCC(=O)OCCCC/C=C\CC (stereo not drawn) [Lipid L0829] | 0.13 | 98.3 | 78 | 92
